Experimental data published in EPA's ToxValDB 9.5.

How the values were obtained:
[1] = tested on: Mus musculus; conditions: oral, gavage, M; for LOEL / NOEL: duration: 60 days
[2] = tested on: Bird; conditions: reproductive, in ovo, M/F, White leghorn chicken, generation: F1
[3] = tested on: Crangonyx richmondensis ssp. laurentianus; assay: FEL; higher = less toxic; conditions: short-term; duration: 22 day; whole body; M/F; Monoporeia affinis; parasite infection
[4] = short-term, duration: 28 days, B6C3F1, IgM antibody-producing cells (SRBC)
[5] = short-term, duration: 28 days, B6C3F1, spleen: Splenic NK cell activity
[6] = short-term, duration: 28 days, B6C3F1, spleen: splenic CD4-/CD8- + spleen: splenic CD4-/CD8+ + spleen: splenic CD4+/CD8- + spleen: splenic CD4+/CD8+
[7] = subchronic, duration: 30 days, C57BL/6, spleen: spleen: relative weight
[8] = subchronic, C57BL/6, % of sub G1 population (splenocytes) + spleen: apoptotic cells (splenocytes) + spleen: viability in murine splenocytes + thymus: apoptotic …
[9] = subchronic, C57BL/6, % of sub G1 population (thymocytes) + body weight change + spleen: necrotic cells (splenocytes) + spleen: spleen cellularity + spleen: …
[10] = subchronic, C57BL/6, IgM antibody titer (SRBC) + spleen: IL-4 levels
[11] = subchronic, C57BL/6, blood serum: IL-1 beta (+LPS in vivo) + blood serum: IL-1 beta levels + blood serum: IL-6 levels + peritoneal cavity: IL-1 beta levels (+LPS…
[12] = subchronic, C57BL/6, blood serum: IL-6 levels (+LPS in vivo) + blood serum: TNF-alpha levels (+LPS in vivo) + peritoneal cavity: IL-6 levels (+LPS in vivo) + …
[13] = subchronic, C57BL/6, body weight change + food intake from day 60 to 61 + IgE antibody titer (SRBC) + IgG antibody titer (SRBC) + IgG1 antibody titer (SRBC) + …
[14] = subchronic, C57BL/6, body weight change + peritoneal cavity: IL-6 levels + peritoneal cavity: IL-6 levels (+LPS in vitro) + peritoneal cavity: TNF-alpha levels…
[15] = subchronic, C57BL/6, liver: liver index
[16] = subchronic, C57BL/6, peritoneal cavity: IL-1 beta levels
[17] = subchronic, C57BL/6, serum corticosterone + spleen: lymphocyte proliferation (LPS) + spleen: spleen B220+ Cells + spleen: spleen CD8+ cells + thymus: thymus CD4…
[18] = subchronic, C57BL/6, spleen: lymphocyte proliferation (ConA) + thymus: thymus DN (CD4-/CD8-)

O=S(=O)(O)C(F)(F)C(F)(F)C(F)(F)C(F)(F)C(F)(F)C(F)(F)C(F)(F)C(F)(F)F [Perfluorooctanesulfonic acid]
LOEL (TAD) [1, 4]: 0.05 mg/kg-day | NOEL (TAD) [1, 4]: 0.005 mg/kg-day | NOEL (TAD) ([1]; short-term, duration: 28 days, B6C3F1, serum lysozyme activity + spleen: lymphocyte proliferation (ConA) + spleen: lymphocyte proliferation (LPS) + spleen: spleen cellularity + …): 5 mg/kg-day | LOEL (TAD) [1, 5]: 0.5 mg/kg-day | NOEL (TAD) [1, 5]: 0.1 mg/kg-day | LOEL (TAD) [1, 6]: 0.1 mg/kg-day | NOEL (TAD) [1, 6]: 0.05 mg/kg-day | LOEL (TAD) [1, 7]: 300 mg/kg-day | NOEL (TAD) [1, 7]: 150 mg/kg-day | LOEL [1, 8]: 0.0833 mg/kg-day | NOEL [1, 8]: 0.0167 mg/kg-day | LOEL [1, 9]: 0.833 mg/kg-day | NOEL [1, 9]: 0.0833 mg/kg-day | NOEL ([1]; subchronic, C57BL/6, DTH response + IgG2a antibody titer (SRBC) + kidney: kidney index + serum corticosterone): 0.833 mg/kg-day | LOEL [1, 10]: 0.0833 mg/kg-day | NOEL [1, 10]: 0.0167 mg/kg-day | LOEL ([1]; subchronic, C57BL/6, IgM antibody-secreting cells (SRBC) + Splenic NK cell activity): 0.0833 mg/kg-day | NOEL ([1]; subchronic, C57BL/6, IgM antibody-secreting cells (SRBC) + spleen: spleen DP (CD4+/CD8+) + Splenic NK cell activity): 0.00833 mg/kg-day | LOEL [1, 11]: 0.833 mg/kg-day | NOEL [1, 11]: 0.417 mg/kg-day | LOEL [1, 12]: 2.08 mg/kg-day | NOEL [1, 12]: 0.833 mg/kg-day | NOEL ([1]; subchronic, C57BL/6, blood serum: TNF-alpha levels): 2.08 mg/kg-day | LOEL [1, 13]: 0.833 mg/kg-day | NOEL [1, 13]: 0.417 mg/kg-day | LOEL [1, 14]: 0.417 mg/kg-day | NOEL [1, 14]: 0.0833 mg/kg-day | LOEL [1, 15]: 0.417 mg/kg-day | NOEL [1, 15]: 0.0833 mg/kg-day | LOEL ([1]; subchronic, C57BL/6, peritoneal cavity macrophages): 0.0167 mg/kg-day | NOEL ([1]; subchronic, C57BL/6, peritoneal cavity macrophages + spleen: IL-1 beta mRNA): 0.0083 mg/kg-day | LOEL [1, 16]: 0.0833 mg/kg-day | NOEL [1, 16]: 0.0167 mg/kg-day | LOEL [1, 17]: 0.833 mg/kg-day | NOEL [1, 17]: 0.417 mg/kg-day | LOEL [1, 18]: 2.08 mg/kg-day | NOEL [1, 18]: 0.833 mg/kg-day | LOEL ([1]; subchronic, C57BL/6, spleen: spleen CD4+ cells + spleen: spleen cellularity + spleen: spleen DN (CD4-/CD8-) + spleen: spleen DP (CD4+/CD8+) + spleen: spleen: …): 0.417 mg/kg-day | NOEL ([1]; subchronic, C57BL/6, spleen: spleen CD4+ cells + spleen: spleen cellularity + spleen: spleen DN (CD4-/CD8-) + spleen: spleen: relative weight + thymus: thymus …): 0.0833 mg/kg-day | LOEL (mg ion/kg egg) ([2]; F1: IgM and IgY antibody titer (SRBC) + F1: plasma lysozyme activity + F1: spleen: spleen: relative weight): 0.93 | NOEL (mg ion/kg egg) ([2]; F1: IgM antibody titer (SRBC) + F1: IgY antibody titer (SRBC) + F1: lymph node: normalized bursa mass + F1: PHA skin test (DTH response) + …): 4.6 | FEL [3]: 5 mg/L
